This is an account of results in patent US12089591B2 (priority 2005, dated 2024).

Where “and” joins values, the source holds several entries; their conditions need not be identical. Identical values can stand only once. Like-named read-outs stand apart in the source and are kept apart here.

The test system of the data set is ROUNDUP READY FLEX cotton.
[1] abbreviates: Table M1a, […], glyphosate 2520 g/ha, PMIDA 11.9 g/ha, control = no additive.
Where [2] appears, read: Table M1a, […], glyphosate 5040 g/ha, PMIDA 23.9 g/ha, control = no additive.
Where [3] appears, read: Table D1a Study 2, glyphosate:dye 10:1, glyphosate 2520 g/ha, PMIDA 11.9 g/ha.
[4] abbreviates: Table D1a Study 2, glyphosate:dye 10:1, glyphosate 5040 g/ha, PMIDA 23.9 g/ha.
Where [5] appears, read: Table D1a Study 3, glyphosate:dye 100:1, glyphosate 2520 g/ha, PMIDA 11.9 g/ha.
Setting [6] is: Table D1a Study 3, glyphosate:dye 100:1, glyphosate 5040 g/ha, PMIDA 23.9 g/ha.
Setting [7] is: Table D1a Study 2, glyphosate:dye 100:1, glyphosate 2520 g/ha, PMIDA 11.9 g/ha.
Setting [8] is: Table D1a Study 2, glyphosate:dye 100:1, glyphosate 5040 g/ha, PMIDA 23.9 g/ha.
Setting [9] is: Table D1a Study 2, glyphosate:dye 1000:1, glyphosate 2520 g/ha, PMIDA 11.9 g/ha.
The mark [10] stands for this setting: Table D1a Study 2, glyphosate:dye 1000:1, glyphosate 5040 g/ha, PMIDA 23.9 g/ha.
Setting [11] is: Table M3a, […], glyphosate 1260 g/ha, PMIDA 3.95 g/ha.
Where [12] appears, read: Table M3a, […], glyphosate 2520 g/ha, PMIDA 7.90 g/ha.
Where [13] appears, read: Table M3a, […], glyphosate 5040 g/ha, PMIDA 15.8 g/ha.
The mark [14] stands for this setting: Table AO1a, […], glyphosate 2520 g/ha, PMIDA 11.9 g/ha.
The mark [15] stands for this setting: Table AO1a, […], glyphosate 5040 g/ha, PMIDA 23.9 g/ha.
Setting [16] is: Table H2a, […], glyphosate 2520 g/ha, PMIDA 11.9 g/ha.
[17] abbreviates: Table H2a, […], glyphosate 5040 g/ha, PMIDA 23.9 g/ha.

In the case of `OCCCCO` [1,4-butanediol], the “decrease of necrosis (in words)” value (in vivo) was “significantly decreased necrosis”.

`CC(O)CC(C)(C)O` (stereo not shown) [2-methyl-2,4-pentanediol]: the “decrease of necrosis (in words)” value (in vivo) is “significantly decreased necrosis”.

As for `CC(O)C#CC(C)O` (stereo not shown) [3-hexyne-2,5-diol], under “in vivo”, the “decrease of necrosis (in words)” value is recorded as “significantly decreased necrosis”.

As to `[Ca+2].[Cl-].[Cl-]` [Calcium chloride, Calcium chloride (anhydrous)], the “Necrosis Reduction Relative to Control” value under setting [1] came out at 32% and the “Necrosis Reduction Relative to Control” value under setting [2] was 6%.

Regarding `O=[N+]([O-])[O-].O=[N+]([O-])[O-].[Cu+2]` [Cupric Nitrate, Cupric Nitrate (2.1) hydrate], the “Necrosis Reduction Relative to Control” value by setting is: under setting [1], 92%; under setting [2], 68%.

Consider `OCCOCCO` [Diethylene glycol], for which, under “in vivo”, the “decrease of necrosis (in words)” value is on record as “significantly decreased necrosis”.

In the case of `CCN(Cc1cccc(S(=O)(=O)[O-])c1)c1ccc(C(=C2C=CC(=[N+](CC)Cc3cccc(S(=O)(=O)[O-])c3)C=C2)c2ccccc2S(=O)(=O)[O-])cc1.[Na+].[Na+]` [FD&C Blue #1], under setting [3], the “Necrosis Reduction Relative to Coontrol” value is reported as 66%. Under setting [4], the “% necrosis (2 DAT)” value is given as 46% and the “Necrosis Reduction Relative to Coontrol” value is listed as 41%.

Take `Nc1cc(S(=O)(=O)[O-])cc2cc(S(=O)(=O)[O-])c(N=Nc3ccccc3)c(O)c12.[Na+].[Na+]` [FD&C Red #33]: the “Necrosis Reduction Relative to Coontrol” value under setting [5] is reported as 6% and the “Necrosis Reduction Relative to Coontrol” value under setting [6] is 0%.

Consider `COc1cc(S(=O)(=O)[O-])c(C)cc1N=Nc1c(O)ccc2cc(S(=O)(=O)[O-])ccc12.[Na+].[Na+]` [FD&C Red #40], for which the “Necrosis Reduction Relative to Coontrol” value by setting is: under setting [5], 11%; under setting [6], 0%.

Take `CCN(Cc1cccc(S(=O)(=O)[O-])c1)c1ccc(C(=C2C=CC(=[N+](C)C)C=C2)c2ccc(N(CC)Cc3cccc(S(=O)(=O)O)c3)cc2)cc1` [FD&C Violet #1]: the “Necrosis Reduction Relative to Coontrol” value was 37% under setting [5] and 0% under setting [6].

Take `O=C([O-])c1nn(-c2ccc(S(=O)(=O)[O-])cc2)c(O)c1N=Nc1ccc(S(=O)(=O)[O-])cc1.[Na+].[Na+].[Na+]` [FD&C Yellow #5, 3-carboxy-5-hydroxy-1-p-sulfophenyl-4-p-sulfophenylazopyrazole trisodium salt]: the “Necrosis Reduction Relative to Coontrol” value was 96% (Table D1a Study 1, glyphosate:dye 10:1, glyphosate 2520 g/ha, PMIDA 11.9 g/ha); 55% (Table D1a Study 1, glyphosate:dye 10:1, glyphosate 5040 g/ha, PMIDA 23.9 g/ha); 84% under setting [3]; 51% under setting [4]; 18% under setting [7]; 29% under setting [8]. For the same compound, the “Necrosis Reduction Relative to Coontrol” value reads like this: under setting [9], 26%; under setting [10], 12%. The “% necrosis (2 DAT)” value runs as follows: under setting [4], 38%; under setting [7], 31%; under setting [8], 55%; under setting [9], 28%; under setting [10], 69%. Further, the “decrease of PMIDA-induced necrosis by dye (in words)” value (dye as safening agent in glyphosate spray solutions) was “significantly decrease”.

Regarding `CCN(Cc1cccc(S(=O)(=O)[O-])c1)c1ccc(C(=C2C=CC(=[N+](CC)Cc3cccc(S(=O)(=O)[O-])c3)C=C2)c2ccc(O)cc2S(=O)(=O)[O-])cc1.[Na+].[Na+]` [Fast Green FCF], the “Necrosis Reduction Relative to Coontrol” value runs as follows: under setting [5], 2%; under setting [6], 0%.

In the case of `[Cl][Fe]([Cl])[Cl]` [Ferric chloride], the “Necrosis Reduction Relative to Control” value turned out to be 100% under setting [1] and 97% under setting [2].

With `O=C([O-])CN(CCN(CC(=O)[O-])CC(=O)[O-])CC(=O)[O-].[Fe+3].[Na+]` [Iron + EDTA, iron(III) EDTA sodium salt hydrate], the “Necrosis Reduction Relative to Control” value under setting [11] is 100%, the “Necrosis Reduction Relative to Control” value under setting [12] is given as 68% and the “Necrosis Reduction Relative to Control” value under setting [13] is 45%. Under “in vivo”, the “reduction in necrosis, comparison of iron sources (in words)” value is on record as “significantly less effective”.

As to `O=C([O-])CC(O)(CC(=O)[O-])C(=O)[O-].[Fe+3]` [Iron citrate, iron(III) citrate], the “Necrosis Reduction Relative to Control” value is reported as 100% under setting [11], 97% under setting [12] and 75% under setting [13]. Also, the “reduction in necrosis, comparison of iron sources (in words)” value (in vivo) is “no significant difference”.

Consider `O.O.O.O.O.O.O.O=S(=O)([O-])[O-].[Mg+2]` [Magnesium sulfate, Magnesium sulfate heptahydrate], for which, where the note is “in vivo”, the “Necrosis Reduction Relative to Control” value is 0% and 6%; the “effect of metal salt on necrosis (in words)” value is listed as “relatively little impact”.

With `O=C(O)CN(CC(=O)O)CP(=O)(O)O` [PMIDA, N-(phosphonomethyl)iminodiacetic acid], the “Maximum necrosis (plateau)” value (Example 1, highest application rate and higher levels of PMIDA) was 80-85%.

Turning to `O=S([O-])[O-].[Na+].[Na+]` [Sodium sulfite, sodium sulfite], the “Necrosis Reduction Relative to Control” value runs as follows: under setting [14], 39%; under setting [15], 0%.

Consider `CC(C)CC(C)(O)C#CC(C)(O)CC(C)C` (stereo not shown) [Surfynol 104A], for which the “Necrosis Reduction Relative to Control” value is, setting by setting: under setting [16], 50%; under setting [17], 8%. Also, the “decrease of necrosis (in words)” value (in vivo) is on record as “significantly decreased necrosis”.

For `COc1ccc(O)c(C(C)(C)C)c1` [butylated hydroxy anisole, butylated hydroxyanisole], the “Necrosis Reduction Relative to Control” value runs as follows: under setting [14], 80%; under setting [15], 29%.

With `OCC(O)CO` [glycerin], the “Necrosis Reduction Relative to Control” value by setting is: (Table H1a Study 1, additive 2% v/v, glyphosate 2520 g/ha, PMIDA 11.9 g/ha) 12%; (Table H1a Study 1, additive 2% v/v, glyphosate 5040 g/ha, PMIDA 23.9 g/ha) 14%; (Table H1a Study 1, additive 4% v/v, glyphosate 2520 g/ha, PMIDA 11.9 g/ha) 45%; (Table H1a Study 1, additive 4% v/v, glyphosate 5040 g/ha, PMIDA 23.9 g/ha) 41%. Besides, the “reduction of necrosis (in words)” value (in vivo) is listed as “significantly reduced necrosis”.

In the case of `CCC(CO)(CO)CO` [trimethylol-propane], the “Necrosis Reduction Relative to Control” value under setting [16] was 0% and the “Necrosis Reduction Relative to Control” value under setting [17] is 0%.

`NC(N)=O` [urea]: the “Necrosis Reduction Relative to Control” value reads like this: (Table H1a Study 2, glycerin 4% v/v or urea 8% v/v, glyphosate 2520 g/ha, PMIDA 11.9 g/ha) 36%; (Table H1a Study 2, glycerin 4% v/v or urea 8% v/v, glyphosate 5040 g/ha, PMIDA 23.9 g/ha) 13%. In addition, the “reduction of necrosis (in words)” value (in vivo) is “significantly reduced necrosis”.

On to Aluminum chloride hexahydrate, for which, under “in vivo”, the “Necrosis Reduction Relative to Control” value was 95% and 71%.

Take Zinc sulfate heptahydrate: for the setting “in vivo”, the “effect of metal salt on necrosis (in words)” value was “significantly reduce necrosis”.

Regarding polyethylene glycol 200, under “in vivo”, the “decrease of necrosis (in words)” value was “significantly decreased necrosis”.

For polyethylene glycol 900, under “in vivo”, the “decrease of necrosis (in words)” value is “significantly decreased necrosis”.
